Key:
[1] = molecular target: Rho-associated protein kinase 2 (Homo sapiens, UniProt O75116); test: Biochemical ROCK2 assay
[2] = tested on: Epidermal growth factor receptor (Homo sapiens), P00533 [UNDEFINED MUTATION]; conditions: Compound concentration 100.0 nM
[3] = molecular target: Tyrosine-protein kinase ABL1 (Homo sapiens) (UniProt P00519); test: Abl (h) Upstate kinase activity assay; conditions: Compound concentration 10.0 uM
[4] = molecular target: Tyrosine-protein kinase ABL2 (Mus musculus) (UniProt Q4JIM5); test: Arg (m) Upstate kinase activity assay; conditions: Compound concentration 10.0 uM
[5] = molecular target: Mitogen-activated protein kinase 9 (Homo sapiens) (UniProt P45984); test: JNK2alpha2 (h) Upstate kinase activity assay; conditions: Compound concentration 10.0 uM
Mitogen-activated protein kinase 9 (Homo sapiens), sequence (P45984 whole entry, looked up): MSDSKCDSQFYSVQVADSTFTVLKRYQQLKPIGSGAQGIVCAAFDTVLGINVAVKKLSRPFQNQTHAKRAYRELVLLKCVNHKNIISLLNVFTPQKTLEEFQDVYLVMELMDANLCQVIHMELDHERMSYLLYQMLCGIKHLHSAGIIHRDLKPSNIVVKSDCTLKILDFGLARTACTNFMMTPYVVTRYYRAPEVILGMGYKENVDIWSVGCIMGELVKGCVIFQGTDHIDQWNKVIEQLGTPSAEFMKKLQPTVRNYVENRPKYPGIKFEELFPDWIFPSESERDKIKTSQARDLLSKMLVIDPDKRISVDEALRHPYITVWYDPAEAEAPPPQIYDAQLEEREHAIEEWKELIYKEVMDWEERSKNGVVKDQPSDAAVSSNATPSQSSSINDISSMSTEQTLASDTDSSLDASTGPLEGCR

[6] = molecular target: T1, Protein kinase C epsilon type (Homo sapiens) (UniProt Q02156); test: PKCepsilon (h) Upstate kinase activity assay; conditions: Compound concentration 10.0 uM
T1 sequence (whole entry): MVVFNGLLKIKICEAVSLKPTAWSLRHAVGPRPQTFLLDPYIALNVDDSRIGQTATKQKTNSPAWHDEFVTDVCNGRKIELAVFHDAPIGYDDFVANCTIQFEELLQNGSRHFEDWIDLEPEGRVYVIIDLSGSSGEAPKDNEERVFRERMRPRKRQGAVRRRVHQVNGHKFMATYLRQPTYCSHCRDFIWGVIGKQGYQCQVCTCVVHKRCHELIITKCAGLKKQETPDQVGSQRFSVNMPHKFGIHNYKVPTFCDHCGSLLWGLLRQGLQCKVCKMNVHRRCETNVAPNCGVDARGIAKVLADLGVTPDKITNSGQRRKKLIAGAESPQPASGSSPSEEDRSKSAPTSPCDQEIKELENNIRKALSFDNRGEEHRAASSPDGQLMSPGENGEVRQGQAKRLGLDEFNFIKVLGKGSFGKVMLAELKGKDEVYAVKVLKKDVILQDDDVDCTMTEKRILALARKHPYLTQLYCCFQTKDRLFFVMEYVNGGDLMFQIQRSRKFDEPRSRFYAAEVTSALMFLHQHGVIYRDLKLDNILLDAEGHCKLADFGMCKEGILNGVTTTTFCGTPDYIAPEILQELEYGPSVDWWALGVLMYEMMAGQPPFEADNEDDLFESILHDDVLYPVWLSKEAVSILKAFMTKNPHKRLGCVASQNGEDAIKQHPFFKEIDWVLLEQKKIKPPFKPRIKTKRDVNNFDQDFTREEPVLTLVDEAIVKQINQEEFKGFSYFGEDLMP

[7] = molecular target: Protein kinase C zeta type (Homo sapiens) (UniProt Q05513); test: PKCzeta (h) Upstate kinase activity assay; conditions: Compound concentration 10.0 uM
Protein kinase C zeta type (Homo sapiens), sequence (Q05513 whole entry): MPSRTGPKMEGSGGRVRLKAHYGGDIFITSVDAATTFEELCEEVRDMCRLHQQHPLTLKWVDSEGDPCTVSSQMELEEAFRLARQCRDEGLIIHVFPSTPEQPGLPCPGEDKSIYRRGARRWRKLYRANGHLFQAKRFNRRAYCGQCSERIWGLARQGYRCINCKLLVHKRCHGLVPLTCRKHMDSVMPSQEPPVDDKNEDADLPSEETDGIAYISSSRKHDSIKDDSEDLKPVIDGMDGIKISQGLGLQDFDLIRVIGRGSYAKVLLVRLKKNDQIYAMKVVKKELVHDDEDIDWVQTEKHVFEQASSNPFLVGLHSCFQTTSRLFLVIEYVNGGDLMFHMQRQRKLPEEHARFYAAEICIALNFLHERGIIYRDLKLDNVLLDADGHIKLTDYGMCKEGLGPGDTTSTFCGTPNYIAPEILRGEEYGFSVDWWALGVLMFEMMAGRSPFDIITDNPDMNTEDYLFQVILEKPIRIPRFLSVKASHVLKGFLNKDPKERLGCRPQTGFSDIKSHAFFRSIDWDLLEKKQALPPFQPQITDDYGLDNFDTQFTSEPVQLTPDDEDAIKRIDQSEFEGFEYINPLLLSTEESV

[8] = molecular target: T2, Tyrosine-protein kinase receptor TYRO3 (Homo sapiens) (UniProt Q06418); test: Rse (h) Upstate kinase activity assay; conditions: Compound concentration 10.0 uM
T2 sequence (whole entry): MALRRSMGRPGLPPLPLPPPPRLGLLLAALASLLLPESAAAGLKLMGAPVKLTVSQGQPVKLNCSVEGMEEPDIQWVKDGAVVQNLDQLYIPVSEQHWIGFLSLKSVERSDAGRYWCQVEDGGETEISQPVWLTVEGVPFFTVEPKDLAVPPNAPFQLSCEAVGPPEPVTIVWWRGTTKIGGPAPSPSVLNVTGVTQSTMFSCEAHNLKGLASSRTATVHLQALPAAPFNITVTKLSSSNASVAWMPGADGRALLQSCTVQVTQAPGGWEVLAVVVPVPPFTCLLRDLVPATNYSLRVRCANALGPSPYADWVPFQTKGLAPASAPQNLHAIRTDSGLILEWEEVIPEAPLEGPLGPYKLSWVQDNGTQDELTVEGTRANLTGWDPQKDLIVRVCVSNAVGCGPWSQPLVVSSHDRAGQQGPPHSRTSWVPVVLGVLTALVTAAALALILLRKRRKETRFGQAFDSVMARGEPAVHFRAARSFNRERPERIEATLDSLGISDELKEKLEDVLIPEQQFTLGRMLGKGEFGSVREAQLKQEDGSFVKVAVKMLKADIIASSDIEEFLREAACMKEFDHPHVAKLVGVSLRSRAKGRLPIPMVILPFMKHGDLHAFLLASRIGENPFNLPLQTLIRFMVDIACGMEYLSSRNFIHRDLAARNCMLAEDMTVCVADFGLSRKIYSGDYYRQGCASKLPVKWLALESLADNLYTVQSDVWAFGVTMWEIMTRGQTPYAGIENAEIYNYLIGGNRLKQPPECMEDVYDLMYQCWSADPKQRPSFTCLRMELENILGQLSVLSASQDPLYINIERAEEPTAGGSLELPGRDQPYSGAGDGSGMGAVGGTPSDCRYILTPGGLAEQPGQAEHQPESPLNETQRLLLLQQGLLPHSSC

[9] = molecular target: Tyrosine-protein kinase SYK (Homo sapiens) (UniProt P43405); test: Syk (h) Upstate kinase activity assay; conditions: Compound concentration 10.0 uM
[10] = molecular target: Tyrosine-protein kinase Yes (Homo sapiens) (UniProt P07947); test: Yes (h) Upstate kinase activity assay; conditions: Compound concentration 10.0 uM
[11] = Leukemia […] cell line MDS Pharma Services Proliferation Assay; format: functional, cell-based, Homo sapiens
[12] = molecular target: Sigma intracellular receptor 2 (Homo sapiens) (UniProt Q5BJF2); conditions: Compound concentration 10.0 uM
Sigma intracellular receptor 2 (Homo sapiens), sequence (Q5BJF2 whole entry): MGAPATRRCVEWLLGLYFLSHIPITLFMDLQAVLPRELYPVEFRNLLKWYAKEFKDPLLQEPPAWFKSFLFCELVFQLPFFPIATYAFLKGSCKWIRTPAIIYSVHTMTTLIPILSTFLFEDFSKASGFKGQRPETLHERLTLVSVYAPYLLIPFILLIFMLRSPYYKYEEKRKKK

Tyrosine-protein kinase ABL1 (Homo sapiens), sequence (P00519 whole entry): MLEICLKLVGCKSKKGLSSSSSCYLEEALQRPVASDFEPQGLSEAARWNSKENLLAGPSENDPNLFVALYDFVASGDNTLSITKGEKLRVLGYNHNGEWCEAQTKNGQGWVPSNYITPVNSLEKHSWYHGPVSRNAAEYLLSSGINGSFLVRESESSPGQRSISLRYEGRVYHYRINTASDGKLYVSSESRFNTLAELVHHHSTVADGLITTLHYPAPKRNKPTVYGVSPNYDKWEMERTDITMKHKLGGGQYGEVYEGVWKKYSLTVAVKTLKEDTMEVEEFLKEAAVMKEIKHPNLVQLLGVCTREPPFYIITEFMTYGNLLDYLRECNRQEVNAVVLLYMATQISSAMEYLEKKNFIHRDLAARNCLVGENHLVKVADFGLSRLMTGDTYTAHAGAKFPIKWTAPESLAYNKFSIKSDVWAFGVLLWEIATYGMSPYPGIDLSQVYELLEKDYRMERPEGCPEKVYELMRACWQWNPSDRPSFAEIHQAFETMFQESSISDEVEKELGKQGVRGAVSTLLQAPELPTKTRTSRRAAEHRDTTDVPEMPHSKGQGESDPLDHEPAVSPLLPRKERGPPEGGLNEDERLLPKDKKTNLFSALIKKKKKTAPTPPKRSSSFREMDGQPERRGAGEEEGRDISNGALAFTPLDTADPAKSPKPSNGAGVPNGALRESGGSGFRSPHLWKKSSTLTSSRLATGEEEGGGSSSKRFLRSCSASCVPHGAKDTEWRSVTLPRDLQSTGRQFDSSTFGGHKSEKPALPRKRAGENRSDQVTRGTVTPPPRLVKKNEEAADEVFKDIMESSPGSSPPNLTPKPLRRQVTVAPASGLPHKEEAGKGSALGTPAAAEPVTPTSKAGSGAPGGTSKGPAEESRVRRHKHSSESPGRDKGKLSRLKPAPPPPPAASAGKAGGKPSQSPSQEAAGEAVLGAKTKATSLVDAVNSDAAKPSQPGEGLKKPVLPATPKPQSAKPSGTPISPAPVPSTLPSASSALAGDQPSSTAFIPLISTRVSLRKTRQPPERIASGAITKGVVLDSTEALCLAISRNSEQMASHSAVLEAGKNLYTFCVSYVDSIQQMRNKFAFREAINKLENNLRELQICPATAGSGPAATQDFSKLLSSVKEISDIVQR
Epidermal growth factor receptor (Homo sapiens), P00533 [UNDEFINED MUTATION], sequence (P00533 whole entry, looked up, change not shown): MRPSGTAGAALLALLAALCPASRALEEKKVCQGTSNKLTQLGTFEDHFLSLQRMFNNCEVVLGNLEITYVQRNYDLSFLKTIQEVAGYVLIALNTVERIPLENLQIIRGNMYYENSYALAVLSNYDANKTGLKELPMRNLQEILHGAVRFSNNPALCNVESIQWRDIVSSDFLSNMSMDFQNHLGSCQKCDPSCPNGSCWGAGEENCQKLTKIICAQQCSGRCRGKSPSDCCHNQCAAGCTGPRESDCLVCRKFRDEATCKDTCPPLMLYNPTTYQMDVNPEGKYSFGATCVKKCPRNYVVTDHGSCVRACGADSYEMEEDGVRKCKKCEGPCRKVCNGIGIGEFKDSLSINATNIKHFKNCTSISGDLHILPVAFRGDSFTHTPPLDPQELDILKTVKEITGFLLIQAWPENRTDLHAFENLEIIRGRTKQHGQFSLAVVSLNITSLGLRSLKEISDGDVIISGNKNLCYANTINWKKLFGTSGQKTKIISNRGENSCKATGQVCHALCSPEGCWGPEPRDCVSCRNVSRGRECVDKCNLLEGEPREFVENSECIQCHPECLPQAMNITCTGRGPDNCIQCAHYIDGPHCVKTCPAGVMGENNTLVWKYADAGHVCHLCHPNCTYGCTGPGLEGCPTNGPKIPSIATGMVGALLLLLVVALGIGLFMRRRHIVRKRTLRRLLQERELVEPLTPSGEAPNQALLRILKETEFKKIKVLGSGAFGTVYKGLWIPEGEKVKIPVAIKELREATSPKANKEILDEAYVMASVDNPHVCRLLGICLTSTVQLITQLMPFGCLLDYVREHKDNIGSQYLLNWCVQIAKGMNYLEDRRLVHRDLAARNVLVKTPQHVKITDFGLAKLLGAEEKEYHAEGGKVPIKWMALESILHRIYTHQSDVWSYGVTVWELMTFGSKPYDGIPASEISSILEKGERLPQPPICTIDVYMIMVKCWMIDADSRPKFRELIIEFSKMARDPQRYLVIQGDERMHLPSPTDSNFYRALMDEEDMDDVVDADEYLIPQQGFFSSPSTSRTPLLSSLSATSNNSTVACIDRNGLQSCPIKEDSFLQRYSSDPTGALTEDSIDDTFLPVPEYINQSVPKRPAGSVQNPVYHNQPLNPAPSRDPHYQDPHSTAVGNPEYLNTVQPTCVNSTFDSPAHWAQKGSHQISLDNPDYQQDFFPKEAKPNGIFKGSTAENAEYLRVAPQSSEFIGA
Rho-associated protein kinase 2, sequence (O75116 whole entry): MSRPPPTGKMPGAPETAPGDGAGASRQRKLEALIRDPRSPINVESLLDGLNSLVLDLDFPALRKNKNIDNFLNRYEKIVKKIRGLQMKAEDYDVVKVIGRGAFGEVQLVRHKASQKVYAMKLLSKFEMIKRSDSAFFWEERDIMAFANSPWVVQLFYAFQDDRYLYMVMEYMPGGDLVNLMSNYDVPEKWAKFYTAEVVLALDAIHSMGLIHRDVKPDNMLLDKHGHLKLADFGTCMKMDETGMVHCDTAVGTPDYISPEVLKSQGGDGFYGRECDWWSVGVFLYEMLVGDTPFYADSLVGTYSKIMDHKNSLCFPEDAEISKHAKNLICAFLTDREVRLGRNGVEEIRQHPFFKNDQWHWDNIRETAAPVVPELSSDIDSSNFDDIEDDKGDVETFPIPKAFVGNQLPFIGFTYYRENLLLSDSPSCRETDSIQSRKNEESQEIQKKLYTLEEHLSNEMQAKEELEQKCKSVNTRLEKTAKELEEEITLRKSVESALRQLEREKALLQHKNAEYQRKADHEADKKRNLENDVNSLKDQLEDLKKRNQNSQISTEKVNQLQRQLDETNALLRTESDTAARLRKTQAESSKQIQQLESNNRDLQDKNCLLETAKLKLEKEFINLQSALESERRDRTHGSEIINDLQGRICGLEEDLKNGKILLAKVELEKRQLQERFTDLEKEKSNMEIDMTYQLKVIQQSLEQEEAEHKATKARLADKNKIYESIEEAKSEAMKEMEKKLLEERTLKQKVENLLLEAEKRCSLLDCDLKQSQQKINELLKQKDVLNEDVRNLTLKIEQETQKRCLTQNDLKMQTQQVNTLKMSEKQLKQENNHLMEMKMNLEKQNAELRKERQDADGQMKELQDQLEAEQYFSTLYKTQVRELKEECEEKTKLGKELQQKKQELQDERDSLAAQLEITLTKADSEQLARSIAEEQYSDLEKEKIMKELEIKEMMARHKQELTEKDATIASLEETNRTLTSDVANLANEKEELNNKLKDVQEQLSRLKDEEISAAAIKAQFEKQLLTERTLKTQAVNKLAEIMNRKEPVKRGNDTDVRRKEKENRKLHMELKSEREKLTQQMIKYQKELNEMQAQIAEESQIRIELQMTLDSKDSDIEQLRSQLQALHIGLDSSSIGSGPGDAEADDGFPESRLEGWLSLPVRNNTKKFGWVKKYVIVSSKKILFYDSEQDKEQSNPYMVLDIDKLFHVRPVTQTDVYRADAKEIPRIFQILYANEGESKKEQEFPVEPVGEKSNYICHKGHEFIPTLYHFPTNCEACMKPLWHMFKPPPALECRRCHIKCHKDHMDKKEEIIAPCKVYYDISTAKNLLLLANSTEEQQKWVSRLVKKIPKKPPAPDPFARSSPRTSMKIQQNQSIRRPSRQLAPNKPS

| Structure (SMILES) | IC50 [1] | residual activity [2] [%] | inhibition [3] [%] | inhibition [4] [%] | inhibition [5] [%] | inhibition [6] [%] | inhibition [7] [%] | inhibition [8] [%] | inhibition [9] [%] | inhibition [10] [%] | IC50 ([11]; Homo sapiens, Leukemia 1-IL-60) [µM] | TGI ([11]; Homo sapiens, Leukemia 1-IL-60) [µM] | CC50 ([11]; Homo sapiens, Leukemia 1-IL-60, read-out: LC50 (the source's name)) [µM] | Mean % growth (n = 2) for 100.0 µM probe concentration ([11]; ± SEM 2 % growth) [%] | Mean % growth (n = 2) for 0.01 µM probe concentration ([11]; ± SEM 4 % growth) [%] | Mean % growth (n = 2) for 0.1 µM probe concentration ([11]; ± SEM 4 % growth) [%] | Mean % growth (n = 2) for 1.0 µM probe concentration ([11]; ± SEM 5 % growth) [%] | Mean % growth (n = 2) for 10.0 µM probe concentration ([11]; ± SEM 6 % growth) [%] | inhibition [12] [%] |
| --- | --- | --- | --- | --- | --- | --- | --- | --- | --- | --- | --- | --- | --- | --- | --- | --- | --- | --- | --- |
| Cn1cc(Cl)c2c(Oc3c(F)cc(Nc4cc(Cl)nc(N)n4)cc3F)ccnc21 [BAY-4900] | 17.7 µM (not active) | 88 | – | – | – | – | – | – | – | – | – | – | – | – | – | – | – | – | – |
| Cc1c[nH]c2nccc(Oc3c(F)cc(Nc4cc(Cl)nc(N)n4)cc3F)c12 [BAY-549] | – | – | 14 | 36 | 16 | 28 | -7 | 15 | 20 | 23 | 21 | > 100 | > 100 | 35 | 98 | 88 | 89 | 53 | 31.9 |

Source: ChEMBL document CHEMBL4507274 (2021)
